From ChEMBL document CHEMBL1159136, “Dipeptide mimetics can substitute for the receptor activation domain resulting in highly potent analogues of hPTH(136)” (Bioorg Med Chem Lett, 1996)
Square brackets hold non-standard residues; d marks the D form. Peptide text beside a SMILES is read from it. * marks the point of attachment. X6 = CC(=O)N(C(=O)[C@H](C)N)[C@H](C(=O)*)C(C)C; X8 = C[C@H](N)/C(F)=C/[C@@H](Cc1ccccc1)C(=O)*; X7 = C[C@H](/C=C(\Cl)[C@H](C)N)C(=O)*; X5 = C[C@H](/C=C(\F)[C@H](C)N)C(=O)*; NMeV = CN[C@H](C(=O)O)C(C)C; NMeA = CN[C@@H](C)C(=O)O

Experiments:
OK-1 [1] = assay: Accumulation of cyclic AMP in OK-1 cells.; format: functional, cell-based, opossum; details: opossum, OK-1
OK-1 [2] = assay: Compound was evaluated for the intrinsic activity for accumulation of cyclic AMP in OK-1 cells.; format: functional, opossum
OK-1 [3] = assay: Displacement of [125I]-chick PTHrP-(1-36)-NH2 from opossum (OK-1) kidney cells; format: functional
UMR106-06 [4] = assay: Compound was evaluated for the intrinsic activity for accumulation of cyclic AMP in UMR10606 (rat osteosarcoma) cells.; format: functional
UMR106-06 [5] = assay: Compound was evaluated for the accumulation of cyclic AMP in UMR10606 (rat osteosarcoma) cells.; format: functional, cell-based; details: Rattus norvegicus, UMR106-06

| EC50 (OK-1 [1]) | EC50 (UMR106-06 [5]) | SMILES | Intrinsic activity (OK-1 [2]) | pKD (OK-1 [3]) | Intrinsic activity (UMR106-06 [4]) |
| --- | --- | --- | --- | --- | --- |
| > 1000 nM | 26 nM | CC[C@H](C)[C@H](NC(=O)[C@H](CCC(=O)O)NC(=O)[C@H](CO)NC(=O)[C@@H](/C=C(\F)[C@H](C)N)Cc1ccccc1)C(=O)N[C@@H](CCC(N)=O)C(=O)N[C@@H](CC(C)C)C(=O)N[C@@H](CCSC)C(=O)N[C@@H](Cc1c[nH]cn1)C(=O)N[C@@H](CC(N)=O)C(=O)N[C@@H](CC(C)C)C(=O)NCC(=O)N[C@@H](CCCCN)C(=O)N[C@@H](Cc1c[nH]cn1)C(=O)N[C@@H](CC(C)C)C(=O)N[C@@H](CC(N)=O)C(=O)N[C@@H](CO)C(=O)N[C@@H](CCSC)C(=O)N[C@@H](CCC(=O)O)C(=O)N[C@@H](CCCN=C(N)N)C(=O)N[C@H](C(=O)N[C@@H](CCC(=O)O)C(=O)N[C@@H](Cc1c[nH]c2ccccc12)C(=O)N[C@@H](CC(C)C)C(=O)N[C@@H](CCCN=C(N)N)C(=O)N[C@@H](CCCCN)C(=O)N[C@@H](CCCCN)C(=O)N[C@@H](CC(C)C)C(=O)N[C@@H](CCC(N)=O)C(=O)N[C@@H](CC(=O)O)C(=O)N[C@H](C(=O)N[C@@H](Cc1c[nH]cn1)C(=O)N[C@@H](CC(N)=O)C(=O)N[C@@H](Cc1ccccc1)C(=O)N[C@H](C(=O)N[C@@H](C)C(N)=O)C(C)C)C(C)C)C(C)C (X8-SEIQLMHNLGKHLNSMERVEWLRKKLQDVHNFVA-NH2) | <0.1 | 8.6 | 0.08 |
| 6.5 nM | 4.9 nM | CC[C@H](C)[C@H](NC(=O)[C@H](CCC(=O)O)NC(=O)[C@H](CO)NC(=O)[C@H](C(C)C)N(C)C(=O)[C@H](C)NC)C(=O)N[C@@H](CCC(N)=O)C(=O)N[C@@H](CC(C)C)C(=O)N[C@@H](CCSC)C(=O)N[C@@H](Cc1c[nH]cn1)C(=O)N[C@@H](CC(N)=O)C(=O)N[C@@H](CC(C)C)C(=O)NCC(=O)N[C@@H](CCCCN)C(=O)N[C@@H](Cc1c[nH]cn1)C(=O)N[C@@H](CC(C)C)C(=O)N[C@@H](CC(N)=O)C(=O)N[C@@H](CO)C(=O)N[C@@H](CCSC)C(=O)N[C@@H](CCC(=O)O)C(=O)N[C@@H](CCCN=C(N)N)C(=O)N[C@H](C(=O)N[C@@H](CCC(=O)O)C(=O)N[C@@H](Cc1c[nH]c2ccccc12)C(=O)N[C@@H](CC(C)C)C(=O)N[C@@H](CCCN=C(N)N)C(=O)N[C@@H](CCCCN)C(=O)N[C@@H](CCCCN)C(=O)N[C@@H](CC(C)C)C(=O)N[C@@H](CCC(N)=O)C(=O)N[C@@H](CC(=O)O)C(=O)N[C@H](C(=O)N[C@@H](Cc1c[nH]cn1)C(=O)N[C@@H](CC(N)=O)C(=O)N[C@@H](Cc1ccccc1)C(=O)N[C@H](C(=O)N[C@@H](C)C(N)=O)C(C)C)C(C)C)C(C)C (H-[NMeA][NMeV]SEIQLMHNLGKHLNSMERVEWLRKKLQDVHNFVA-NH2) | 1 | 8.5 | 1 |
| 9.9 nM | 15 nM | CC[C@H](C)[C@H](NC(=O)[C@H](CCC(=O)O)NC(=O)[C@H](CO)NC(=O)[C@H](C(C)C)N(C(C)=O)C(=O)[C@H](C)N)C(=O)N[C@@H](CCC(N)=O)C(=O)N[C@@H](CC(C)C)C(=O)N[C@@H](CCSC)C(=O)N[C@@H](Cc1c[nH]cn1)C(=O)N[C@@H](CC(N)=O)C(=O)N[C@@H](CC(C)C)C(=O)NCC(=O)N[C@@H](CCCCN)C(=O)N[C@@H](Cc1c[nH]cn1)C(=O)N[C@@H](CC(C)C)C(=O)N[C@@H](CC(N)=O)C(=O)N[C@@H](CO)C(=O)N[C@@H](CCSC)C(=O)N[C@@H](CCC(=O)O)C(=O)N[C@@H](CCCN=C(N)N)C(=O)N[C@H](C(=O)N[C@@H](CCC(=O)O)C(=O)N[C@@H](Cc1c[nH]c2ccccc12)C(=O)N[C@@H](CC(C)C)C(=O)N[C@@H](CCCN=C(N)N)C(=O)N[C@@H](CCCCN)C(=O)N[C@@H](CCCCN)C(=O)N[C@@H](CC(C)C)C(=O)N[C@@H](CCC(N)=O)C(=O)N[C@@H](CC(=O)O)C(=O)N[C@H](C(=O)N[C@@H](Cc1c[nH]cn1)C(=O)N[C@@H](CC(N)=O)C(=O)N[C@@H](Cc1ccccc1)C(=O)N[C@H](C(=O)N[C@@H](C)C(N)=O)C(C)C)C(C)C)C(C)C (X6-SEIQLMHNLGKHLNSMERVEWLRKKLQDVHNFVA-NH2) | 0.8 | 7.9 | 1 |
| 5.5 nM | 5 nM | CC[C@H](C)[C@H](NC(=O)[C@H](CCC(=O)O)NC(=O)[C@H](CO)NC(=O)[C@H](C)/C=C(\Cl)[C@H](C)N)C(=O)N[C@@H](CCC(N)=O)C(=O)N[C@@H](CC(C)C)C(=O)N[C@@H](CCSC)C(=O)N[C@@H](Cc1c[nH]cn1)C(=O)N[C@@H](CC(N)=O)C(=O)N[C@@H](CC(C)C)C(=O)NCC(=O)N[C@@H](CCCCN)C(=O)N[C@@H](Cc1c[nH]cn1)C(=O)N[C@@H](CC(C)C)C(=O)N[C@@H](CC(N)=O)C(=O)N[C@@H](CO)C(=O)N[C@@H](CCSC)C(=O)N[C@@H](CCC(=O)O)C(=O)N[C@@H](CCCN=C(N)N)C(=O)N[C@H](C(=O)N[C@@H](CCC(=O)O)C(=O)N[C@@H](Cc1c[nH]c2ccccc12)C(=O)N[C@@H](CC(C)C)C(=O)N[C@@H](CCCN=C(N)N)C(=O)N[C@@H](CCCCN)C(=O)N[C@@H](CCCCN)C(=O)N[C@@H](CC(C)C)C(=O)N[C@@H](CCC(N)=O)C(=O)N[C@@H](CC(=O)O)C(=O)N[C@H](C(=O)N[C@@H](Cc1c[nH]cn1)C(=O)N[C@@H](CC(N)=O)C(=O)N[C@@H](Cc1ccccc1)C(=O)N[C@H](C(=O)N[C@@H](C)C(N)=O)C(C)C)C(C)C)C(C)C (X7-SEIQLMHNLGKHLNSMERVEWLRKKLQDVHNFVA-NH2) | 1 | 8.9 | 1 |
| 9.1 nM | 13 nM | CC[C@H](C)[C@H](NC(=O)[C@H](CCC(=O)O)NC(=O)[C@H](CO)NC(=O)[C@H](C)/C=C(\F)[C@H](C)N)C(=O)N[C@@H](CCC(N)=O)C(=O)N[C@@H](CC(C)C)C(=O)N[C@@H](CCSC)C(=O)N[C@@H](Cc1c[nH]cn1)C(=O)N[C@@H](CC(N)=O)C(=O)N[C@@H](CC(C)C)C(=O)NCC(=O)N[C@@H](CCCCN)C(=O)N[C@@H](Cc1c[nH]cn1)C(=O)N[C@@H](CC(C)C)C(=O)N[C@@H](CC(N)=O)C(=O)N[C@@H](CO)C(=O)N[C@@H](CCSC)C(=O)N[C@@H](CCC(=O)O)C(=O)N[C@@H](CCCN=C(N)N)C(=O)N[C@H](C(=O)N[C@@H](CCC(=O)O)C(=O)N[C@@H](Cc1c[nH]c2ccccc12)C(=O)N[C@@H](CC(C)C)C(=O)N[C@@H](CCCN=C(N)N)C(=O)N[C@@H](CCCCN)C(=O)N[C@@H](CCCCN)C(=O)N[C@@H](CC(C)C)C(=O)N[C@@H](CCC(N)=O)C(=O)N[C@@H](CC(=O)O)C(=O)N[C@H](C(=O)N[C@@H](Cc1c[nH]cn1)C(=O)N[C@@H](CC(N)=O)C(=O)N[C@@H](Cc1ccccc1)C(=O)N[C@H](C(=O)N[C@@H](C)C(N)=O)C(C)C)C(C)C)C(C)C (X5-SEIQLMHNLGKHLNSMERVEWLRKKLQDVHNFVA-NH2) | 0.6 | 8.2 | 0.95 |
